What was measured:
HIV strain K103N = assay: Cellular anti-HIV assay in MT4 LTR-EGFP cells, mutant K103N; assay type: cell-based, HIV-1; conditions: Human immunodeficiency virus 1, read-out: K103N pEC50 (converted)
Description: (§1) Because of the increasing emergence of drug resistant HIV strains, the present compounds were tested for their potency against clinically isolated HIV strains harbouring several mutations. These mutations are associated with resistance to reverse transcriptase inhibitors and result in viruses that show various degrees of phenotypic cross-resistance to the currently commercially available drugs such as for instance AZT and delavirdine.
(§2) The antiviral activity of the compound of the present invention has been evaluated in the presence of wild type HIV and HIV mutants bearing mutations at the reverse transcriptase gene. The activity of the compounds is evaluated using a cellular assay which was performed according to the following procedure.
(§3) The human T-cell line MT4 is engineered with Green Fluorescent Protein (GFP) and an HIV-specific promoter, HIV-1 long terminal repeat (LTR). This cell line is designated MT4 LTR-EGFP, and can be used for the in vitro evaluation of anti-HIV activity of investigational compounds. In HIV-1 infected cells, the Tat protein is produced which upregulates the LTR promotor and finally leads to stimulation of the GFP reporter production, allowing to measure ongoing HIV-infection fluorometrically. Analogously, MT4 cells are engineered with GFP and the constitutional cytomegalovirus (CMV) promotor. This cell line is designated MT4 CMV-EGFP, and can be used for the in vitro evaluation of cytotoxicity of investigational compounds. In this cell line, GFP levels are comparably to those of infected MT4 LTR-EGFP cells. Cytotoxic investigational compounds reduce GFP levels of mock-infected MT4 CMV-EGFP cells.
(§4) Effective concentration values such as 50% effective concentration (EC50) can be determined and are usually expressed in μM. An EC50 value is defined as the concentration of test compound that reduces the fluorescence of HIV-infected cells by 50%. The 50% cytotoxic concentration (CC50 in μM) is defined as the concentration of test compound that reduces fluorescence of the mock-infected cells by 50%. The ratio of CC50 to EC50 is defined as the selectivity index (SI) and is an indication of the selectivity of the anti-HIV activity of the inhibitor. The ultimate monitoring of HIV-1 infection and cytotoxicity is done using a scanning microscope. Image analysis allows very sensitive detection of viral infection. Measurements are done before cell necrosis, which usually takes place about five days after infection, in particular measurements are performed three days after infection.
(§5) The columns IIIB, L100I, etc. in the table list the pEC50 values against various strains IIIB, L100I, etc.

HIV strain Y181C = assay: Cellular anti-HIV assay in MT4 LTR-EGFP cells, mutant Y181C; assay type: cell-based, HIV-1; conditions: Human immunodeficiency virus 1, read-out: Y181C pEC50 (converted)
Description: as §1, §2, §3, §4, §5

HIV strain L100I = assay: Cellular anti-HIV assay in MT4 LTR-EGFP cells, mutant L100I; assay type: cell-based, HIV-1; conditions: Human immunodeficiency virus 1, read-out: L100I pEC50 (converted)
Description: as §1, §2, §3, §4, §5

HIV strain Y188L = assay: Cellular anti-HIV assay in MT4 LTR-EGFP cells, mutant Y188L; assay type: cell-based, HIV-1; conditions: Human immunodeficiency virus 1, read-out: Y188L pEC50 (converted)
Description: as §1, §2, §3, §4, §5

HIV strain L100I + K103N = assay: Cellular anti-HIV assay in MT4 LTR-EGFP cells, mutant L100I + K103N; assay type: cell-based, HIV-1; conditions: Human immunodeficiency virus 1, 72 h, read-out: L100I + K103N pEC50 (converted)
Description: as §1, §2, §3, §4, §5

HIV strain K103N + Y181C = assay: Cellular anti-HIV assay in MT4 LTR-EGFP cells, mutant K103N + Y181C; assay type: cell-based, HIV-1; conditions: Human immunodeficiency virus 1, 72 h, read-out: K103N + Y181C pEC50 (converted)
Description: as §1, §2, §3, §4, §5

[1] = system: HIV strain IIIB (wild type); assay: Cellular anti-HIV assay in MT4 LTR-EGFP cells, strain IIIB (wild type); selectivity index versus cytotoxicity in mock-infected MT4 CMV-EGFP cells; assay type: cell-based, HIV-1; conditions: for EC50: Human immunodeficiency virus 1, 72 h, wild type HIV strain IIIB, MT4 LTR-EGFP cells, fluorescence, three days after infection, read-out: IIIB pEC50 (converted); for IIIB pSi: selectivity index = ratio of CC50 (mock-infected MT4 CMV-EGFP cells) to EC50 (IIIB), given as p value
Description: as §2, §3, §4, §5
Strain IIIB is wild type HIV strain

HIV strain MDR = assay: Cellular anti-HIV assay in MT4 LTR-EGFP cells, MDR strain; assay type: cell-based, HIV-1; conditions: Human immunodeficiency virus 1, read-out: MDR pEC50 (converted)
Description: as §1, §2, §3, §4, §5
MDR refers to a strain that contains mutations L100I, K103N, Y181C, E138G, V1791, L2214F, V278V/I and A327A/V in HIV reverse transcriptase.

Row | Structure (SMILES) | EC50 (HIV strain K103N) | EC50 (HIV strain Y181C) | EC50 (HIV strain L100I) | EC50 (HIV strain Y188L) | melting point | EC50 (HIV strain L100I + K103N) | EC50 (HIV strain K103N + Y181C) | EC50 [1] | IIIB pSi [1] | EC50 (HIV strain MDR)
1 | CCN(CCO)C(=O)c1cnc(Nc2ccc(C#N)cc2)nc1Nc1c(C)cc(/C=C/C#N)cc1C [Compound 55] | 3.98 nM | 20 nM | 15.8 nM | 63.1 nM | > 222 °C | 79.4 nM | 100 nM | 1 nM | 4.00 | 2000 nM
2 | Cc1cc(/C=C/C#N)cc(C)c1Nc1nc(Nc2ccc(C#N)cc2)ncc1C(=O)N1CCOCC1 | – | – | – | – | > 250 °C | – | – | – | – | –
3 | COc1ccccc1NC(=O)c1cnc(Nc2ccc(C#N)cc2)nc1Nc1c(C)cc(/C=C/C#N)cc1C | – | – | – | – | > 250 °C | – | – | – | – | –
4 | COCCNC(=O)c1cnc(Nc2ccc(C#N)cc2)nc1Nc1c(C)cc(/C=C/C#N)cc1C [Compound 54] | 2 nM | 10 nM | 3.98 nM | 10 nM | > 250 °C | 15.8 nM | 12.6 nM | 2.51 nM | >4.00 | 1000 nM
5 | Cc1cc(/C=C/C#N)cc(C)c1Nc1nc(Nc2ccc(C#N)cc2)ncc1C(=O)NCCO [Compound 53] | 6.31 nM | 20 nM | 5.01 nM | 31.6 nM | > 250 °C | 25.1 nM | 31.6 nM | 3.16 nM | >3.90 | 501 nM
6 | Cc1cc(/C=C/C#N)cc(C)c1Nc1nc(Nc2ccc(C#N)cc2)ncc1C(=O)NCCc1cccs1 [Compound 48] | 20 nM | 126 nM | 126 nM | 316 nM | – | 501 nM | 200 nM | 20 nM | 3.10 | 10000 nM

Reference: US8933089B2, “HIV inhibiting 5-amido substituted pyrimidines” (Janssen R & D Ireland, priority 2006, dated 2015)
